Like-named read-outs stand apart in the source and are kept apart here. Values belong to the compound of their own block, whether it stands above or below them.
What was measured:
[1] = bitumen 20/30 + 5% compound
[2] = MSCR test, percentage elastic recovery; assay type: physicochemical; conditions: bitumen 20/30 + 5% compound
[3] = Softening point ring & ball of rejuvenated bitumen; conditions: bitumen 20/30 rejuvenated with 5% of the compound, 180° C., 30 minutes
[4] = labelling of the product itself; — = none; cited from earlier work
[5] = assay type: physicochemical; conditions: bitumen extracted from RAP + 5% compound
[6] = MSCR elastic recovery of rejuvenated RAP bitumen; assay type: physicochemical; conditions: bitumen extracted from RAP + 5% compound
[7] = Softening point of rejuvenated RAP bitumen; assay type: physicochemical; conditions: bitumen extracted from RAP + 5% compound
[8] = assay type: physicochemical; conditions: aged bitumen 50/70 BP + 5% compound
[9] = MSCR elastic recovery of rejuvenated aged bitumen; assay type: physicochemical; conditions: aged bitumen 50/70 PCK Schwedt + 5% compound
[10] = TD NMR relaxation time measurements (SE-CPMG, multicomponent fitting); assay type: physicochemical; conditions: for 1/<1/T2e>: harmonic average relaxation time of the mobile components
From the text: TD NMR, also known as NMR relaxometry, is a known NMR technique and relies on measuring the relaxation times of the nuclear spin system instead of frequency-domain spectra. […] Also, sample preparation is much simpler as there are no concerns about sample homogeneity and no solvents are needed.
Like that, a clear distinction between protons in a solid, amorphous and liquid component can be made with good accuracy.
Bitumen 20/30 was rejuvenated with some of the here claimed rejuvenating agents according to example 1. The pure bitumen 20/30 as well as the rejuvenated bitumen 20/30 samples were then analyzed by TD NMR. To do so, all samples were heated up to 80° C. to allow filling of the samples into NMR tubes. After that, TD NMR measurements at 30° C., 80° C. and 140° C. were conducted using the SE-CMPG sequence. This sequence consists of a solid echo combined with a so-called CPMG (Carr-Purcell-Meiboom-Gill) train of subsequent spin echoes with alternating phase and is capable of recording the decay of coherence in the transverse nuclear magnetization over about 5 orders of magnitude in time. Depending on the measurement temperature, the experimental data were then fitted with semi-empirically selected multicomponent models involving several Gaussian and exponential components:
S(t)=[pg1 exp(−(t/T2g1)^2)+pg2 exp(−(t/T2g2)^2)]+pe1 exp(−t/T2e1)[pe2 exp(−t/T2e2)+pe3 exp(−t/T2e3)]
In order to assess the effect of temperature on the molecular mobility of the bitumen, experiments were conducted at temperatures of 30° C., 80° C. and 140° C., and the following models turned out to provide adequate fits of the respective normalized signal decay curves: • two Gaussians and one exponential at 30° C., • two Gaussians and two exponentials at 80° C., • three exponentials at 140° C.
From the fitting, different values can be obtained: • The p values (pg1, pg2, pe1, pe2 and pe3), indicating the signal fraction of the individual component scaled in the range from 0 to 1 • The T2 values (T2g1, T2g2, T2e1, T2e2 and T2e3), indicating the relaxation times that correspond to each of the individual components. The longer the relaxation time, the higher the molecular mobility of the respective component • In addition to the values T2e1, T2e2 and T2e3, we also calculated the average relaxation time of the mobile components, 1/<1/T2e>, for the temperatures at which more than one mobile component exist (80 and 140° C.). 1/<1/T2e> Is calculated as the harmonic average of the relaxation times involved:
[formula] • The type of the component, those being: • g1: the rigid component • g2: the partially mobile component • e1, e2 and e3: mobile components with increasingly high local molecular mobilities
It is believed that the rigid component g1 is directly correlated with the amount of the asphaltene aggregates. The mobile component(s) on the other hand can be attributed to the maltene phase.

[11] = assay type: physicochemical; conditions: aged bitumen 50/70 PCK Schwedt + 5% compound
[12] = Low temperature performance, bending beam rheometer (BBR) at −16° C.; assay type: physicochemical
Experimental: Different bitumen samples were rejuvenated as in Example 1, and the BBR values S (flexural creep stiffness) and m […] were evaluated at −16° C. The results were compared to the not rejuvenated bitumen sample as well as to the bitumen rejuvenated with the benchmark RheoFalt® HP-AM (Comp. 1.3).

[13] = Softening point of rejuvenated aged bitumen; assay type: physicochemical; conditions: aged bitumen 50/70 BP + 5% compound
[14] = MSCR elastic recovery of rejuvenated aged bitumen; assay type: physicochemical; conditions: aged bitumen 50/70 BP + 5% compound
[15] = Softening point of rejuvenated aged bitumen; assay type: physicochemical; conditions: aged bitumen 50/70 PCK Schwedt + 5% compound
[16] = Loss tangent from DSR frequency sweep at 60° C.; assay type: physicochemical
From the text: In addition, it could be shown that additives according to the present invention perform most of the times better than the common benchmarks according to the standard testing techniques for the low, mid and high temperature range. What cannot be extracted from these measurements however is an indication of the working mechanism.

[17] = 30° C., bitumen 20/30 + additive
[18] = 80° C., bitumen 20/30 + additive
[19] = 140° C., bitumen 20/30 + additive
[20] = aged bitumen 50/70 BP + 5% compound

Compound: CC(C)CCCCCCOC(=O)c1ccccc1C(=O)OCCCCCCC(C)C [Palatinol ® DINP, diisononyl phthalate]
η(135° C.) [mPas] [1]: 950 mPas
MSCR % Rec. (0.1 kPa) [2]: 9%
MSCR % Rec. (1.6 kPa) [2]: 3%
MSCR % Rec. (3.2 kPa) [2]: 1%
SP [° C.] (softening point) [3]: 52.0 °C

Compound: CC(C)(COCC1CO1)COCC1CO1 (stereo not drawn) [Neopentylglycol bis glycidylether]
η(135° C.) [mPas] [1]: 1,050 mPas
tox (toxicology/eco toxicology) [4]: Irritating
MSCR % Rec. (0.1 kPa) [2]: 11%
MSCR % Rec. (1.6 kPa) [2]: 5%
MSCR % Rec. (3.2 kPa) [2]: 2%
SP [° C.] (softening point) [3]: 52.0 °C

Compound: CCCCCCCCCCCCc1ccc(S(=O)(=O)O)cc1 [Dodecylbenzene sulfonic acid]
η(135° C.) [mPas] [1]: 2,100 mPas
tox (toxicology/eco toxicology) [4]: Harmful
MSCR % Rec. (0.1 kPa) [2]: 27%
MSCR % Rec. (1.6 kPa) [2]: 25%
MSCR % Rec. (3.2 kPa) [2]: 21%
SP [° C.] (softening point) [3]: 64.0 °C

Compound: CC(COCC1CO1)(COCC1CO1)c1ccccc1 (stereo not drawn) [2-Methyl-2-phenyl-1,3-propandiol bis glycidylether]
η(135° C.) [mPas] [1]: 900 mPas
MSCR % Rec. (0.1 kPa) [2]: 8%
MSCR % Rec. (1.6 kPa) [2]: 3%
MSCR % Rec. (3.2 kPa) [2]: 1%
SP [° C.] (softening point) [3]: 52.0 °C

Compound: Dodecenyl succinic acid anhydride
η(135° C.) [mPas] [1]: 950 mPas

Other lines, results leading:

η(135° C.) [mPas] [1]: 1,000 mPas
MSCR % Rec. (0.1 kPa) [2]: 16%
MSCR % Rec. (1.6 kPa) [2]: 10%
MSCR % Rec. (3.2 kPa) [2]: 5%
SP [° C.] (softening point) [3]: 57.0 °C
Compound: Polyethylenglycol bis glycidylether

η(135° C.) [mPas] [5]: 850 mPas
MSCR % Rec. (0.1 kPa) ([6]; 0.1 kPa): 7%
MSCR % Rec. (1.6 kPa) ([6]; 1.6 kPa): 3%
MSCR % Rec. (3.2 kPa) ([6]; 3.2 kPa): 1%
SP [° C.] [7]: 53.0 °C
η(135° C.) [mPas] [8]: 950 mPas
MSCR % Rec. (0.1 kPa) ([9]; 0.1 kPa): 5%
MSCR % Rec. (1.6 kPa) ([9]; 1.6 kPa): 1%
MSCR % Rec. (3.2 kPa) ([9]; 3.2 kPa): 0%
η(135° C.) [mPas] [1]: 800 mPas
T2e1 [10, 17]: 0.20 ms
T2g1 [10, 17]: 0.016 ms
T2g2 [10, 17]: 0.045 ms
pe1 ([10]; 30° C., mobile component, bitumen 20/30 + additive): 0.44
pg2 ([10]; 30° C., partially mobile component, bitumen 20/30 + additive): 0.17
pg1 ([10]; 30° C., signal fraction of rigid component, bitumen 20/30 + additive): 0.38
T2e1 [10, 18]: 0.50 ms
T2e2 [10, 18]: 2.53 ms
T2g1 [10, 18]: 0.017 ms
T2g2 [10, 18]: 0.054 ms
pe1 [10, 18]: 0.48
pe2 [10, 18]: 0.35
pg1 [10, 18]: 0.09
pg2 [10, 18]: 0.074
1/<1/T2e> ([10]; 80° C.): 0.76 ms
T2e1 [10, 19]: 0.21 ms
T2e2 [10, 19]: 4.76 ms
T2e3 [10, 19]: 25.72 ms
pe1 [10, 19]: 0.18
pe2 [10, 19]: 0.47
pe3 [10, 19]: 0.34
1/<1/T2e> ([10]; 140° C.): 1.0 ms
η(135° C.) [mPas] [11]: 700 mPas
S-value [MPa] (flexural creep stiffness) [12, 20]: 90 MPa
m-value [12, 20]: 0.43
S-value [MPa] (flexural creep stiffness) ([12]; bitumen 20/30 + 5% compound): 90 MPa
m-value ([12]; bitumen 20/30 + 5% compound): 0.44
SP [° C.] [13]: 51.0 °C
MSCR % Rec. (0.1 kPa) [2]: 4%
MSCR % Rec. (1.6 kPa) [2]: 1%
MSCR % Rec. (3.2 kPa) [2]: 0%
MSCR % Rec. (0.1 kPa) ([14]; 0.1 kPa): 5%
MSCR % Rec. (1.6 kPa) ([14]; 1.6 kPa): 2%
MSCR % Rec. (3.2 kPa) ([14]; 3.2 kPa): 0%
SP [° C.] (softening point) [3]: 47.0 °C
SP [° C.] [15]: 50.0 °C
tan δ ([16]; aged bitumen 50/70 BP + 5% compound, lowest frequency): 80
tan δ ([16]; aged bitumen 50/70 PCK Schwedt + 5% compound, lowest frequency): 100
tan δ ([16]; bitumen 20/30 + 5% compound, lowest frequency (0.01 rad/s)): 80
tan δ ([16]; bitumen extracted from RAP + 5% compound, lowest frequency): 70
Compound: CCCCCCCCCCCCN1CCCC1=O [N-Dodecyl pyrrolidone]

From patent publication US20230220206A1, “REJUVENATING AGENTS FOR ASPHALT RECYCLING” (BASF SE, priority 2020, published 2023)
